Measurements: patent publication US8148391B2 (Cephalon, Inc., priority 2006, dated 2012)
Where two headings read alike, the source gives them in different places.

Columns and labels:
[1] = target: T1, baculovirus-expressed ALK (Homo sapiens, UniProt Q9UM73); assay: ALK Kinase Assay (ELISA-type, time-resolved fluorescence); format: biochemical
T1 construct: host or cells: baculovirus expression system
Procedure, shortened: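 Substrate coating: phospholipase C-γ, 10 μg/mL in TBS. Kinase step: 30 ng/ml ALK, 15 min, 37° C. Detection and analysis: Eu-N1 PT66 antibody, with IC50 fitted as a sigmoidal variable-slope dose-response curve.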

[2] = target: T2, c-Met (cytoplasmic domain) (Homo sapiens, UniProt P08581); assay: c-Met Kinase Assay (same methods as for ALK, with modifications); format: biochemical
T2 construct: 10 ng/mL c-Met (cytoplasmic domain, Invitrogen Corporation #PV3143); purchased Invitrogen Corporation PV3143
T2 sequence (P08581 956-1390 limits assumed): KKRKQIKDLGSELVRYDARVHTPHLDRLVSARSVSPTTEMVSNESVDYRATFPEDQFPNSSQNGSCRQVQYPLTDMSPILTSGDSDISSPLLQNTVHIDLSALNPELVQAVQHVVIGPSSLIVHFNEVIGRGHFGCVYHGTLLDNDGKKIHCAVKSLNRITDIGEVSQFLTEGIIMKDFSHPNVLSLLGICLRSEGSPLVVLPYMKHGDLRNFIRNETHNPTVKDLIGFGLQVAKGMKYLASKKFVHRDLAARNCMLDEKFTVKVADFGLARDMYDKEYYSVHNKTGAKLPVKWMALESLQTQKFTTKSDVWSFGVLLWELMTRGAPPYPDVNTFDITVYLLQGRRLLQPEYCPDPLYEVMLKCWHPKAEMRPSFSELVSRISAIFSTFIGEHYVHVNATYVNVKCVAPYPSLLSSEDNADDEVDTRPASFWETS
Procedure, shortened: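 This plate-based kinase format uses immobilized phospholipase C-γ as substrate, phosphorylated by c-Met cytoplasmic domain (10 ng/mL) at 37° C for 15 minutes.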

[3] = ALK kinase inhibition, 1 μM ATP (Km level), read-out: ALK Activity
[4] = c-Met kinase inhibition, 1 μM ATP (Km level), read-out: cMet Activity
[5] = 1 μM ATP (Km level), 30 ng/ml ALK, 37° C., 15 minutes, read-out: ALK Activity (ALK kinase inhibition, IC50 class)
[6] = 1 μM ATP (Km level), 10 ng/mL c-Met, read-out: cMet Activity (c-Met kinase inhibition, IC50 class)

T1 sequence (Q9UM73 19-1620): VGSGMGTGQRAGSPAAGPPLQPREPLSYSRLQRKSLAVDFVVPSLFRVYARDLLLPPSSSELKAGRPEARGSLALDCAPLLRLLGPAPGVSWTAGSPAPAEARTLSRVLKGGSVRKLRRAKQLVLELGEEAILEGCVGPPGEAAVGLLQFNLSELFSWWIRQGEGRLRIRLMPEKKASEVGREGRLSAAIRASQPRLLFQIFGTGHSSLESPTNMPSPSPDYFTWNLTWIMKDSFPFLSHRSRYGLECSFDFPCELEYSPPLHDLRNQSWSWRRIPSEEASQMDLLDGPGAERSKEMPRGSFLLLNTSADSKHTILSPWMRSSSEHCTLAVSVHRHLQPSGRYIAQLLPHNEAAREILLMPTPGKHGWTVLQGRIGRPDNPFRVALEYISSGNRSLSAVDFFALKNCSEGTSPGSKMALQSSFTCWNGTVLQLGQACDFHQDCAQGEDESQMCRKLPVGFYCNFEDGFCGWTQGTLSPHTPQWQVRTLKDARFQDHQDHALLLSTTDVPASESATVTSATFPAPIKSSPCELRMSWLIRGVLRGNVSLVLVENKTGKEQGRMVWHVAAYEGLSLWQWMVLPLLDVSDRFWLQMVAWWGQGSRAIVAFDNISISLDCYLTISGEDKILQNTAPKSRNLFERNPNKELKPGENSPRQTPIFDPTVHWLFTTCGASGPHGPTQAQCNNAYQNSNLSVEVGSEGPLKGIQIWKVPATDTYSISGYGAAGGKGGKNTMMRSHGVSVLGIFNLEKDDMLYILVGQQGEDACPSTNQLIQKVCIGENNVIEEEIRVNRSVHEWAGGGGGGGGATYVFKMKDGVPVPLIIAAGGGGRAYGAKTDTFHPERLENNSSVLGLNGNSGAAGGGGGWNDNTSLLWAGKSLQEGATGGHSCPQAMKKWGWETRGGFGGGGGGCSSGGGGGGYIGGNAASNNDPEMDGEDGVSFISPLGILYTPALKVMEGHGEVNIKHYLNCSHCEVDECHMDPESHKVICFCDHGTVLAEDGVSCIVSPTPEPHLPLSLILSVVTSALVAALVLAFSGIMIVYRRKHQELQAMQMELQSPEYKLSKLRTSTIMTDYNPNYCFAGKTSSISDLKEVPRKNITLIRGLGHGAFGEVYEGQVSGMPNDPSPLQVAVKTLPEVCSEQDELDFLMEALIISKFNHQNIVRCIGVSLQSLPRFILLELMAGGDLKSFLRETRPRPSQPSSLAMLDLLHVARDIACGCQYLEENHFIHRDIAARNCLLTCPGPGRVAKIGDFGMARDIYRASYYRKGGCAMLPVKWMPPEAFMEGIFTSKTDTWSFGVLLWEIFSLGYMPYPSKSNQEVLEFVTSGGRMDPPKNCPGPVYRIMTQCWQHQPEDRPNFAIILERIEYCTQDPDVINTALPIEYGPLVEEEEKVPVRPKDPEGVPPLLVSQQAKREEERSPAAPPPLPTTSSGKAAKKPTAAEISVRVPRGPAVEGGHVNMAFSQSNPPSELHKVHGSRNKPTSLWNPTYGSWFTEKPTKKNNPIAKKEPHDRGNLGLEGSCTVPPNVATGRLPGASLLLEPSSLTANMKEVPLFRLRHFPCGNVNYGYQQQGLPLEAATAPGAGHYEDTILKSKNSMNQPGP

Row | IC50 [1, 3] [µM] | IC50 [2, 4] [µM] | IC50 [1, 5] [µM] | IC50 [2, 6] [µM] | Compound | other results
1 | < 0.1 | > 10 | – | – | COc1cc2c(cc1Nc1ncc(Cl)c(N[C@@H]3CCCC[C@H]3NS(C)(=O)=O)n1)CCNC(=O)C2 [Example 263, N-{(1R,2R)-2-[5-Chloro-2-(8-methoxy-2-oxo-2,3,4,5-tetrahydro-1H-benzo[d]azepin-7-ylamino)-pyrimidin-4-ylamino]-cyclohexyl}-methanesulfonamide] | –
2 | < 0.1 | > 10 | – | – | 7-[5-Chloro-4-(2-methoxy-4-morpholin-4-yl-phenylamino)-pyrimidin-2-ylamino]-1-ethyl-5,5-dimethyl-1,3,4,5-tetrahydro-benzo[b]azepin-2-one [Example 393] | –
3 | – | – | < 0.1 | 1 to 10 | CNC(=O)CN1CCc2ccc(Nc3ncc(Cl)c(Nc4ccc(N5CCOCC5)cc4OC)n3)cc2CC1 [Example 1127, 2-{7-[5-Chloro-4-(2-methoxy-4-morpholin-4-yl-phenylamino)-pyrimidin-2-ylamino]-1,2,4,5-tetrahydro-benzo[d]azepin-3-yl}-N-methyl-acetamide] | –
4 | < 0.1 | > 10 | – | – | COc1cc2c(cc1Nc1ncc(Cl)c(Nc3ccc(N4CCOCC4)cc3OC)n1)N(C)CCN(C[C@@H](O)C(F)(F)F)C2 [Example 496, (R)-3-{8-[5-Chloro-4-(2-methoxy-4-morpholin-4-yl-phenylamino)-pyrimidin-2-ylamino]-7-methoxy-1-methyl-1,2,3,5-tetrahydro-benzo[e][1,4]diazepin-4-yl}-1,1,1-trifluoro-propan-2-ol] | –
5 | < 0.1 | 1 to 10 | – | – | CS(=O)(=O)Nc1ccccc1Nc1nc(Nc2ccc3c(c2)CNC(=O)NC3)ncc1Cl [Example 225, N-{2-[5-Chloro-2-(3-oxo-2,3,4,5-tetrahydro-1H-benzo[e][1,3]diazepin-7-ylamino)-pyrimidin-4-ylamino]-phenyl}-methanesulfonamide] | –
6 | – | – | < 0.1 | > 10 | CCN1C(=O)[C@@H](NC(=O)COC)CCc2c1ccc(Nc1ncc(Cl)c(N[C@H]3[C@@H](C(N)=O)[C@@H]4C=C[C@H]3C4)n1)c2OC (single isomer, unassigned) [Example 1351] | –
7 | < 0.1 | 1 to 10 | – | – | CC(=O)OCCN1CCN(C)c2cc(Nc3ncc(Cl)c(N[C@@H]4CCCC[C@H]4NS(C)(=O)=O)n3)ccc2C1 [Example 476, Acetic acid 2-{8-[5-chloro-4-((1R,2R)-2-methanesulfonylamino-cyclohexylamino)-pyrimidin-2-ylamino]-1-methyl-1,2,3,5-tetrahydro-benzo[e][1,4]diazepin-4-yl}-ethyl ester] | –
8 | – | – | – | – | CNC(=O)c1cccc(F)c1Nc1nc(Nc2ccc3c(c2)N(C(=O)CN2C(=O)c4ccccc4C2=O)CCCC3(C)C)ncc1Cl [Example 1616, 2-(5-Chloro-2-{1-[2-(1,3-dioxo-1,3-dihydro-isoindol-2-yl)-acetyl]-5,5-dimethyl-2,3,4,5-tetrahydro-1H-benzo[b]azepin-8-ylamino}-pyrimidin-4-ylamino)-3-fluoro-N-methyl-benzamide] | IC50 ([1]; ALK kinase inhibition, 1 μM ATP, read-out: ALK Activity): 0.1 to 1 µM; IC50 ([2]; c-Met kinase inhibition, 1 μM ATP, read-out: cMet Activity): 0.1 to 1 µM
9 | – | – | 0.1 to 1 | > 10 | COc1ccc2c(c1Nc1ncc(Cl)c(Nc3ccccc3S(=O)(=O)N(C)C)n1)CCC(NCC(F)F)CC2 (centres unmarked) [Example 1077, 2-{5-Chloro-2-[7-(2,2-difluoro-ethylamino)-2-methoxy-6,7,8,9-tetrahydro-5H-benzocyclohepten-1-ylamino]-pyrimidin-4-ylamino}-N,N-dimethyl-benzenesulfonamide] | –
10 | – | – | – | – | COc1cc2c(cc1Nc1ncc(Cl)c(Nc3ccccc3S(=O)(=O)N3CCOCC3)n1)CCN(CC(=O)N(C)C)CC2 [Example 836, 2-(7-{5-Chloro-4-[2-(morpholine-4-sulfonyl)-phenylamino]-pyrimidin-2-ylamino}-8-methoxy-1,2,4,5-tetrahydro-benzo[d]azepin-3-yl)-N,N-dimethyl-acetamide] | IC50 ([1]; 1 μM ATP (Km level), read-out: ALK Activity (ALK Kinase Inhibition, IC50)): < 0.1 µM; IC50 ([2]; 1 μM ATP (Km level), read-out: cMet Activity (c-Met Kinase Inhibition, IC50)): > 10 µM
